Reference: patent US20240279237A1, “FUSED BICYCLIC HETEROARYL COMPOUNDS USEFUL AS NLRP3 INHIBITORS” (Hoffmann-La Roche Inc., priority 2021, published 2024)
Counter-ions that a name gives are not always drawn.

Molecular target: T1, NLRP3 (Homo sapiens, UniProt Q96P20)
T1 construct: Seed THP-1 cells (25,000 cells/well) containing 1.0 μg/ml LPS in 40 μl of RPMI medium; host or cells: THP-1 cells
Assay: THP-1 Cells Pyroptosis Assay
Format: cell-based
Settings: THP-1 cells with 1.0 μg/ml LPS; compound 3 hours; nigericin 5 μM 1 hr; resazurin readout
In short: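 THP-1 cells in serum-free RPMI primed with LPS (1 μg/ml FAC), incubated with compound 3 h at 37 °C, then nigericin (5 μM FAC) for 1 h. Supernatant removed after spin; viability read by resazurin (100 μM FAC) reduction after a further 1-2 h at 37 °C.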

T1 sequence (Q96P20 whole entry): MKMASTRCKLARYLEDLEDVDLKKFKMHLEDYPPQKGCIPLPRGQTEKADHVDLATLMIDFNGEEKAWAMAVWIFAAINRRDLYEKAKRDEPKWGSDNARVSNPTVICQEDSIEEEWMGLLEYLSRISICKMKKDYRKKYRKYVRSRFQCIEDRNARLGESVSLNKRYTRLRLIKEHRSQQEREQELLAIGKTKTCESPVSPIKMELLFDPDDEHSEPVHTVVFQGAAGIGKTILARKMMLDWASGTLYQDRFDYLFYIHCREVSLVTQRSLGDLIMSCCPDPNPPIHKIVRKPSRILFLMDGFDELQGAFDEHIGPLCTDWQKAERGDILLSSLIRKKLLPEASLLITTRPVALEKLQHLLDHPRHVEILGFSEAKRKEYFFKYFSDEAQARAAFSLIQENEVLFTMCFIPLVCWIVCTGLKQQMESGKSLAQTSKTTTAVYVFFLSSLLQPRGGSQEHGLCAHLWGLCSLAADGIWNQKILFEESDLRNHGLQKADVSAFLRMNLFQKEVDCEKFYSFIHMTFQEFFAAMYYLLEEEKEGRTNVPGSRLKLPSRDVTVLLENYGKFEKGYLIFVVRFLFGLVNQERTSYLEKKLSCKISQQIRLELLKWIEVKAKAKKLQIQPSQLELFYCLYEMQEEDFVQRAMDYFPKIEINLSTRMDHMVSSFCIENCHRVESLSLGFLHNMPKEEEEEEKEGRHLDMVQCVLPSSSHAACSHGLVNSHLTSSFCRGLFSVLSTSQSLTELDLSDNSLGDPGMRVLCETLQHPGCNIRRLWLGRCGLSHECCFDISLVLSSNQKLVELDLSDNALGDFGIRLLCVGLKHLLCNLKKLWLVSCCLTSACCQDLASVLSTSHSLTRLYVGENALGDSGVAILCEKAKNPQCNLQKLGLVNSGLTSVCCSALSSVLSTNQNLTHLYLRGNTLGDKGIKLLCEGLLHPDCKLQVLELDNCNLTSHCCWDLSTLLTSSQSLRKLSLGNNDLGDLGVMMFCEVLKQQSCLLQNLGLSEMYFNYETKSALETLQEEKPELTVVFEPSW

SMILES	IC50 [nM]
Cc1cc(C(F)(F)F)cc(O)c1-c1ccc2oc(NCC3CCN3C)nc2n1 (stereo not shown) [Example 66, 3-Methyl-2-[2-[(1-methylazetidin-2-yl)methylamino]oxazolo[4,5-b]pyridin-5-yl]-5-(trifluoromethyl)phenol]	149
CCN1CC[C@@H](F)[C@@H](Nc2nc3nc(-c4c(C)cc(Cl)cc4O)ccc3o2)C1 [Example 99A, 5-Chloro-2-[2-[[(3S,4R)-1-ethyl-4-fluoro-3-piperidyl]amino]oxazolo[4,5-b]pyridin-5-yl]-3-methyl-phenol]	1.9
Cc1cc(C(F)(F)F)cc(O)c1-c1ccc2oc(N3CCOCC3CN(C)C)nc2n1 (single isomer, unassigned) [Example 2B, 2-[2-[(3S or 3R)-3-[(Dimethylamino)methyl]morpholin-4-yl]oxazolo[4,5-b]pyridin-5-yl]-3-methyl-5-(trifluoromethyl)phenol]	16.9
Cc1cc(Cl)cc(O)c1-c1ccc2oc(C3CCC(=O)NC3)nc2n1 (stereo not shown) [Example 73, 5-[5-(4-Chloro-2-hydroxy-6-methyl-phenyl)oxazolo[4,5-b]pyridin-2-yl]piperidin-2-one]	30
Cc1cc(C#N)cc(O)c1-c1ccc2oc(NC3CCCN4CCCC34)nc2n1 (racemic) [Example 29, (rac)-4-[2-(1,2,3,5,6,7,8,8a-Octahydroindolizin-8-ylamino)oxazolo[4,5-b]pyridin-5-yl]-3-hydroxy-5-methyl-benzonitrile]	5.1
CN1CCC[C@@H](Nc2nc3nc(-c4c(O)cc(Cl)cc4CO)ccc3o2)C1 [Example 94, 5-Chloro-3-(hydroxymethyl)-2-[2-[[(3R)-1-methyl-3-piperidyl]amino]oxazolo[4,5-b]pyridin-5-yl]phenol]	11.9
Cc1cc(S(C)(=O)=O)cc(O)c1-c1ccc2oc(N[C@@H]3CCCN(C)C3)nc2n1 [Example 89, 3-Methyl-2-[2-[[(3R)-1-methyl-3-piperidyl]amino]oxazolo[4,5-b]pyridin-5-yl]-5-methylsulfonyl-phenol;2,2,2-trifluoroacetic acid]	536
CCN1CCC[C@@H](Nc2nc3nc(-c4c(C)cc(C)cc4O)ccc3o2)C1 [Example 123, 2-[2-[[(3R)-1-Ethyl-3-piperidyl]amino]oxazolo[4,5-b]pyridin-5-yl]-3,5-dimethyl-phenol]	0.7
Cc1cc(C#N)cc(O)c1-c1ccc2oc(NC3CCCN4CCCC34)nc2n1 (single isomer, unassigned) [Example 139B, 4-[2-[[(8R,8aR)-1,2,3,5,6,7,8,8a-Octahydroindolizin-8-yl]amino]oxazolo[4,5-b]pyridin-5-yl]-3-hydroxy-5-methyl-benzonitrile or 4-[2-[[(8S,8aS)-1,2,3,5,6,7,8,8a-octahydroindolizin-8-yl]amino]oxazolo[4,5-b]pyridin-5-yl]-3-hydroxy-5-methyl-benzonitrile]	59.9
CCN1CCCC(Nc2nc3nc(-c4c(C)cc(C(F)(F)F)cc4O)cnc3o2)C1 (racemic) [Example 32, (rac)-2-[2-[(1-Ethyl-3-piperidyl)amino]oxazolo[4,5-b]pyrazin-5-yl]-3-methyl-5-(trifluoromethyl)phenol;2,2,2-trifluoroacetic acid salt]	3
Cc1cc(Cl)cc(O)c1-c1ccc2oc(N(CCO)[C@@H]3CCCN(C)C3)nc2n1 [Example 98, 5-Chloro-2-[2-[2-hydroxyethyl-[(3R)-1-methyl-3-piperidyl]amino]oxazolo[4,5-b]pyridin-5-yl]-3-methyl-phenol]	11.1
CNC1(c2nc3nc(-c4c(C)cc(C(F)(F)F)cc4O)ccc3o2)CCOCC1 [Example 135, 3-Methyl-2-[2-[4-(methylamino)tetrahydropyran-4-yl]oxazolo[4,5-b]pyridin-5-yl]-5-(trifluoromethyl)phenol;2,2,2-trifluoroacetic acid]	505
Cc1cc(C(F)(F)F)cc(O)c1-c1ccc2oc(NC[C@H]3C[C@](C)(O)C3)nc2n1 [Example 58, trans-2-[2-[(3-hydroxy-3-methyl-cyclobutyl)methylamino]oxazolo[4,5-b]pyridin-5-yl]-3-methyl-5-(trifluoromethyl)phenol]	95.9
Cc1cc(C#N)cc(O)c1-c1ccc2oc(N[C@@H]3CCCN(C)C3)nc2n1 [Example 26, 3-Hydroxy-5-methyl-4-[2-[[(3R)-1-methyl-3-piperidyl]amino]oxazolo[4,5-b]pyridin-5-yl]benzonitrile]	2.8
CCN1CCC[C@@H](Nc2nc3nc(-c4c(O)cc(F)cc4Cl)ccc3o2)C1 [Example 129, 3-Chloro-2-[2-[[(3R)-1-ethyl-3-piperidyl]amino]oxazolo[4,5-b]pyridin-5-yl]-5-fluoro-phenol;2,2,2-trifluoroacetic acid]	1.7
Cc1cc(Cl)cc(O)c1-c1ccc2oc(N[C@@H]3CCCN(CC(C)O)C3)nc2n1 (stereo partly drawn) [Example 97, 5-Chloro-3-methyl-2-[2-[[(3R)-1-(2-hydroxypropyl)-3-piperidyl]amino]oxazolo[4,5-b]pyridin-5-yl]phenol]	93.9

SMILES	IC50 [nM]
CCN1CCC[C@@H](Nc2nc3nc(-c4ccc5c(c4O)CCO5)c(C)cc3o2)C1 [Example 35, 5-[2-[[(3R)-1-Ethyl-3-piperidyl]amino]-6-methyl-oxazolo[4,5-b]pyridin-5-yl]-2,3-dihydrobenzofuran-4-ol]	27.3
CCN1CCCC(Nc2nc3nc(-c4c(O)cc(Cl)cc4COC)ccc3o2)C1 [Example 24, 5-Chloro-2-[2-[[(3R)-1-ethyl-3-piperidyl]amino]oxazolo[4,5-b]pyridin-5-yl]-3-(methoxymethyl)phenol;2,2,2-trifluoroacetic acid salt]	1.7
CCN1C[C@@H](O)C[C@@H](Nc2nc3nc(-c4c(C)cc(Cl)cc4O)ccc3o2)C1 [Example 134, (3S,5R)-5-[[5-(4-Chloro-2-hydroxy-6-methyl-phenyl)oxazolo[4,5-b]pyridin-2-yl]amino]-1-ethyl-piperidin-3-ol]	1.9
CCN1C[C@@H](F)C[C@@H](Nc2nc3nc(-c4c(C)cc(Cl)cc4O)ccc3o2)C1 [Example 54, 5-Chloro-2-[2-[[(3R,5S)-1-ethyl-5-fluoro-3-piperidyl]amino]oxazolo[4,5-b]pyridin-5-yl]-3-methyl-phenol]	10.1
Cc1cc(Cl)cc(O)c1-c1ccc2oc(N3CCOC4CCN(C)CC43)nc2n1 (stereo not shown) [Example 42, 5-Chloro-3-methyl-2-[2-(6-methyl-3,4a,5,7,8,8a-hexahydro-2H-pyrido[4,3-b][1,4]oxazin-4-yl)oxazolo[4,5-b]pyridin-5-yl]phenol]	5.1
CCN1CCC2CCN(c3nc4nc(-c5c(C)cc(C#N)cc5O)ccc4o3)C2C1 (single isomer, unassigned) [Example 72B, 4-[2-[(3aR,7aS)-6-ethyl-3,3a,4,5,7,7a-hexahydro-2H-pyrrolo[2,3-c]pyridin-1-yl]oxazolo[4,5-b]pyridin-5-yl]-3-hydroxy-5-methyl-benzonitrile or 4-[2-[(3aS,7aR)-6-Ethyl-3,3a,4,5,7,7a-hexahydro-2H-pyrrolo[2,3-c]pyridin-1-yl]oxazolo[4,5-b]pyridin-5-yl]-3-hydroxy-5-methyl-benzonitrile]	310
CCN1CCC[C@@H](Nc2nc3nc(-c4c(O)cc(Cl)cc4Cl)ccc3o2)C1 [Example 132, 3,5-Dichloro-2-[2-[[(3R)-1-ethyl-3-piperidyl]amino]oxazolo[4,5-b]pyridin-5-yl]phenol;2,2,2-trifluoroacetic acid]	0.7
CCN1CCC[C@@H](Nc2nc3nc(-c4c(C)cc(C(F)F)cc4O)ccc3o2)C1 [Example 122, 5-(Difluoromethyl)-2-[2-[[(3R)-1-ethyl-3-piperidyl]amino]oxazolo[4,5-b]pyridin-5-yl]-3-methyl-phenol;2,2,2-trifluoroacetic acid]	1
Cc1cc(C(F)(F)F)cc(O)c1-c1ccc2oc(N[C@@H]3CCCN(CCO)C3)nc2n1 [Example 52, 2-[2-[[(3R)-1-(2-Hydroxyethyl)-3-piperidyl]amino]oxazolo[4,5-b]pyridin-5-yl]-3-methyl-5-(trifluoromethyl)phenol]	2.3
Cc1cc(C#N)cc(O)c1-c1ccc2oc(N[C@@H]3CCC[C@H]3N(C)C)nc2n1 [Example 108, 4-[2-[[(1R,2R)-2-(Dimethylamino)cyclopentyl]amino]oxazolo[4,5-b]pyridin-5-yl]-3-hydroxy-5-methyl-benzonitrile]	16.8
CCN1CCC[C@@H](Nc2nc3nc(-c4c(C)cc(C#N)cc4O)ccc3o2)C1 [Example 25, 4-[2-[[(3R)-1-Ethyl-3-piperidyl]amino]oxazolo[4,5-b]pyridin-5-yl]-3-hydroxy-5-methyl-benzonitrile]	1.6
Cc1cc(C(F)(F)F)cc(O)c1-c1ccc2oc(N3CCNCC3)nc2n1 [Example 6, 3-Methyl-2-(2-piperazin-1-yloxazolo[4,5-b]pyridin-5-yl)-5-(trifluoromethyl)phenol formic acid salt]	86.6
Cc1cc(Cl)cc(O)c1-c1ccc2oc(N[C@@H]3CCCN(C4COC4)C3)nc2n1 [Example 63, 5-Chloro-3-methyl-2-[2-[[(3R)-1-(oxetan-3-yl)-3-piperidyl]amino]oxazolo[4,5-b]pyridin-5-yl]phenol]	57.5
CCN1CCC[C@@H](Nc2nc3nc(-c4c(C)cc(OC(F)F)cc4O)ccc3o2)C1 [Example 130, 5-(Difluoromethoxy)-2-[2-[[(3R)-1-ethyl-3-piperidyl]amino]oxazolo[4,5-b]pyridin-5-yl]-3-methyl-phenol;2,2,2-trifluoroacetic acid]	1.9
Cc1cc(Cl)cc(O)c1-c1cc(N2CCCC2=O)c2oc(N[C@@H]3CCCN(C)C3)nc2n1 (racemic) [Example 60, 1-[5-(4-Chloro-2-hydroxy-6-methyl-phenyl)-2-[[rac-(3R)-1-methyl-3-piperidyl]amino]oxazolo[4,5-b]pyridin-7-yl]pyrrolidin-2-one]	17.9
